# Results published in ChEMBL document CHEMBL5380793, “Structure-Activity Relationship of Novel Pyrimidine Derivatives with Potent Inhibitory Activities against Mycobacterium tuberculosis” (J Med Chem, 2023).
# Columns and labels:
# [1] = tested on: Mycobacterium tuberculosis; test: Antitubercular activity against marker free autoluminescent Mycobacterium tuberculosis H37Ra assessed as reduction in relative light unit measured once a day for 6 days; type: functional; conditions: 144 h, time 6 day
# [2] = Cytotoxicity against human HepG2 cells assessed as inhibition of cell growth incubated for 48 hrs by MTT assay; type: toxicity, cell-based
# [3] = tested on: Mycobacterium tuberculosis; test: Antibacterial activity against Mycobacterium tuberculosis H37Rv assessed as inhibition of bacterial growth incubated for 6 days by microplate alamar blue assay; type: functional; conditions: 144 h, time 6 day
# [4] = tested on: Mycobacterium tuberculosis; test: Antibacterial activity against Mycobacterium tuberculosis clinical isolate K4 assessed as inhibition of bacterial growth incubated for 6 days by microplate alamar blue assay; type: functional; conditions: K4, 144 h, time 6 day
# [5] = tested on: Mycobacterium tuberculosis; test: Antibacterial activity against Mycobacterium tuberculosis clinical isolate K12 assessed as inhibition of bacterial growth incubated for 6 days by microplate alamar blue assay; type: functional; conditions: K12, 144 h, time 6 day
# [6] = tested on: Mycobacterium tuberculosis; test: Antibacterial activity against Mycobacterium tuberculosis clinical isolate K16 assessed as inhibition of bacterial growth incubated for 6 days by microplate alamar blue assay; type: functional; conditions: K16, 144 h, time 6 day
# [7] = tested on: Mycobacterium tuberculosis; test: Antibacterial activity against Mycobacterium tuberculosis clinical isolate K5 assessed as inhibition of bacterial growth incubated for 6 days by microplate alamar blue assay; type: functional; conditions: K5, 144 h, time 6 day
structure (smiles),measurement,setting,value
Cc1cc(Nc2nc(-c3cccc4ccccc34)ncc2Cl)c(OC(C)C)cc1C1CCNCC1,MIC,[1],0.5 µg/mL
same,IC50 at 48 h,[2],500 nM
Cc1cc(Nc2nc(-c3ccccc3)ncc2F)c(OC(C)C)cc1C1CCNCC1,MIC,[1],0.5 µg/mL
same,IC50 at 48 h,[2],2800 nM
Cc1cc(Nc2nc(-c3ccc4ccccc4c3)ncc2Cl)c(OC(C)C)cc1C1CCNCC1,MIC,[1],0.5 µg/mL
same,IC50 at 48 h,[2],500 nM
Cc1cc(Nc2cc(C)c(C3CCNCC3)cc2OC(C)C)nc(-c2ccccc2)n1,MIC,[1],4 µg/mL
same,IC50 at 48 h,[2],1900 nM
COc1ccccc1Nc1ncc(Cl)c(Nc2cc(C)c(C3CCNCC3)cc2OC(C)C)n1,MIC,[1],2 µg/mL
same,IC50 at 48 h,[2],2000 nM
Cc1cc(Nc2nc(-c3cccc(O)c3)ncc2Cl)c(OC(C)C)cc1C1CCNCC1,MIC,[1],2 µg/mL
same,IC50 at 48 h,[2],1300 nM
Cc1cc(Nc2nc(Nc3cccc4ccccc34)ncc2Cl)c(OC(C)C)cc1C1CCNCC1,MIC,[1],2 µg/mL
same,IC50 at 48 h,[2],2200 nM
Cc1cc(Nc2nc(-c3ccccc3)nc3ccccc23)c(OC(C)C)cc1C1CCNCC1,MIC,[1],2 µg/mL
same,IC50 at 48 h,[2],2800 nM
Cc1cc(Nc2nc(Cl)ncc2Cl)c(OC(C)C)cc1C1CCNCC1,MIC,[1],16 µg/mL
same,IC50 at 48 h,[2],16000 nM
Cc1cc(Nc2nc(Nc3ccc(Cl)cc3Cl)ncc2Cl)c(OC(C)C)cc1C1CCNCC1,MIC,[1],2 µg/mL
same,IC50 at 48 h,[2],2500 nM
Cc1cc(Nc2nc(-c3cccnc3)ncc2Cl)c(OC(C)C)cc1C1CCNCC1,MIC,[1],2 µg/mL
same,IC50 at 48 h,[2],1700 nM
CCOc1cc(N2CCNCC2)ccc1Nc1nc(-c2ccccc2)ncc1Cl,MIC,[1],2 µg/mL
same,IC50 at 48 h,[2],2500 nM
Clc1cnc(-c2ccccc2)nc1Nc1ccc(N2CCNCC2)cc1OCC1CCCCC1,MIC,[1],2 µg/mL
same,IC50 at 48 h,[2],2900 nM
Cc1cc(Nc2nc(-c3cccc(CO)c3)ncc2Cl)c(OC(C)C)cc1C1CCNCC1,MIC,[1],4 µg/mL
same,IC50 at 48 h,[2],4000 nM
CC(C)CCOc1cc(N2CCNCC2)ccc1Nc1nc(-c2ccccc2)ncc1Cl,MIC,[1],1 µg/mL
same,IC50 at 48 h,[2],2100 nM
Cc1cc(Nc2cc(C(F)(F)F)nc(-c3ccccc3)n2)c(OC(C)C)cc1C1CCNCC1,MIC,[1],2 µg/mL
same,IC50 at 48 h,[2],1300 nM
Cc1cc(Nc2nc(N)ncc2Cl)c(OC(C)C)cc1C1CCNCC1,MIC,[1],32 µg/mL
same,IC50 at 48 h,[2],> 10000 nM
Cc1cc(NC(=S)Nc2ccc(F)cc2)c(OC(C)C)cc1C1CCNCC1,MIC,[1],> 64 µg/mL
same,IC50 at 48 h,[2],> 20000 nM
Cc1cc(Nc2nc(-c3ccncc3)ncc2Cl)c(OC(C)C)cc1C1CCNCC1,MIC,[1],2 µg/mL
same,IC50 at 48 h,[2],2000 nM
CC(C)COc1cc(N2CCNCC2)ccc1Nc1nc(-c2ccccc2)ncc1Cl,MIC,[1],1 µg/mL
same,IC50 at 48 h,[2],2600 nM
Cc1cc(Nc2nc(-c3ccccc3CO)ncc2Cl)c(OC(C)C)cc1C1CCNCC1,MIC,[1],4 µg/mL
same,IC50 at 48 h,[2],2000 nM
Cc1cc(Nc2nc(-c3ccccc3)nc3ccsc23)c(OC(C)C)cc1C1CCNCC1,MIC,[1],2 µg/mL
same,IC50 at 48 h,[2],1700 nM
CNC(=O)c1ccc(-c2ncc(Cl)c(Nc3cc(C)c(C4CCNCC4)cc3OC(C)C)n2)cc1,MIC,[1],2 µg/mL
same,IC50 at 48 h,[2],2000 nM
CO[C@H]1/C=C/O[C@@]2(C)Oc3c(C)c(O)c4c(O)c(c(/C=N/N5CCN(C)CC5)c(O)c4c3C2=O)NC(=O)/C(C)=C\C=C\[C@H](C)[C@H](O)[C@@H](C)[C@@H](O)[C@@H](C)[C@H](OC(C)=O)[C@@H]1C [RIFAMPIN],MIC,[3],< 1 µg/mL
same,MIC,[4],> 50 µg/mL
same,MIC,[5],> 10 µg/mL
same,MIC,[6],> 10 µg/mL
same,MIC,[7],> 50 µg/mL
Cc1cc(Nc2nc(Nc3ccccc3F)ncc2Cl)c(OC(C)C)cc1C1CCNCC1,MIC,[1],1 µg/mL
same,IC50 at 48 h,[2],1900 nM
CCCc1ccc(-c2ncc(Cl)c(Nc3cc(C)c(C4CCNCC4)cc3OC(C)C)n2)cc1,MIC,[1],1 µg/mL
same,IC50 at 48 h,[2],2200 nM
Cc1cc(Nc2nc(-c3ccc4c(c3)OCO4)ncc2Cl)c(OC(C)C)cc1C1CCNCC1,MIC,[1],1 µg/mL
same,IC50 at 48 h,[2],1000 nM
CCCOc1cc(N2CCNCC2)ccc1Nc1nc(-c2ccccc2)ncc1Cl,MIC,[1],1 µg/mL
same,IC50 at 48 h,[2],2100 nM
Clc1cnc(-c2ccccc2)nc1Nc1ccc(N2CCNCC2)cc1,MIC,[1],8 µg/mL
same,IC50 at 48 h,[2],3300 nM
Cc1cc(Nc2nc(-c3ccc(Cl)cc3)ncc2Cl)c(OC(C)C)cc1C1CCNCC1,MIC,[1],0.5 µg/mL
same,IC50 at 48 h,[2],2300 nM
Cc1ccc(-c2ncc(Cl)c(Nc3cc(C)c(C4CCNCC4)cc3OC(C)C)n2)cc1,MIC,[1],1 µg/mL
same,IC50 at 48 h,[2],2500 nM
Cc1cc(Nc2ccnc(-c3ccccc3)n2)c(OC(C)C)cc1C1CCNCC1,MIC,[1],4 µg/mL
same,IC50 at 48 h,[2],1900 nM
COc1cccc(Nc2ncc(Cl)c(Nc3cc(C)c(C4CCNCC4)cc3OC(C)C)n2)c1,MIC,[1],1 µg/mL
same,IC50 at 48 h,[2],1300 nM
Cc1cc(Nc2nc(NC3CC3)ncc2Cl)c(OC(C)C)cc1C1CCNCC1,MIC,[1],4 µg/mL
same,IC50 at 48 h,[2],7600 nM
Cc1cc(Nc2nc(C3CC3)ncc2Cl)c(OC(C)C)cc1C1CCNCC1,MIC,[1],2 µg/mL
same,IC50 at 48 h,[2],2000 nM
Clc1cnc(-c2ccccc2)nc1Nc1ccc(N2CCNCC2)cc1OC1CCCC1,MIC,[1],1 µg/mL
same,IC50 at 48 h,[2],2700 nM
Cc1cc(NC(=O)Nc2ccc(F)cc2)c(OC(C)C)cc1C1CCNCC1,MIC,[1],> 64 µg/mL
same,IC50 at 48 h,[2],> 20000 nM
Cc1cc(Nc2nc(-c3ccc(CO)cc3)ncc2Cl)c(OC(C)C)cc1C1CCNCC1,MIC,[1],2 µg/mL
same,IC50 at 48 h,[2],2000 nM
Cc1cc(Nc2nc(Nc3cccc(Cl)c3)ncc2Cl)c(OC(C)C)cc1C1CCNCC1,MIC,[1],1 µg/mL
same,IC50 at 48 h,[2],2000 nM
Cc1cc(Nc2nc(-c3ccc(C(C)C)cc3)ncc2Cl)c(OC(C)C)cc1C1CCNCC1,MIC,[1],1 µg/mL
same,IC50 at 48 h,[2],2200 nM
Cc1cc(Nc2cc(-c3ccccc3)nc3ccnn23)c(OC(C)C)cc1C1CCNCC1,MIC,[1],4 µg/mL
same,IC50 at 48 h,[2],4100 nM
Cc1cc2nc(-c3ccccc3)cc(Nc3cc(C)c(C4CCNCC4)cc3OC(C)C)n2n1,MIC,[1],8 µg/mL
same,IC50 at 48 h,[2],4700 nM
CCc1ncc(Cl)c(Nc2cc(C)c(C3CCNCC3)cc2OC(C)C)n1,MIC,[1],8 µg/mL
same,IC50 at 48 h,[2],8000 nM
CCCCOc1cc(N2CCNCC2)ccc1Nc1nc(-c2ccccc2)ncc1Cl,MIC,[1],1 µg/mL
same,IC50 at 48 h,[2],2600 nM
Cc1cc(Nc2nc(Nc3cccc(C(F)(F)F)c3)ncc2Cl)c(OC(C)C)cc1C1CCNCC1,MIC,[1],1 µg/mL
same,IC50 at 48 h,[2],1100 nM
Cc1cc(Nc2nc(-c3ccc(C(C)(C)C)cc3)ncc2Cl)c(OC(C)C)cc1C1CCNCC1,MIC,[1],1 µg/mL
same,IC50 at 48 h,[2],2300 nM
Cc1cc(C)cc(-c2ncc(Cl)c(Nc3cc(C)c(C4CCNCC4)cc3OC(C)C)n2)c1,MIC,[1],1 µg/mL
same,IC50 at 48 h,[2],2900 nM
Cc1cc(Nc2nc(NC3CCCC3)ncc2Cl)c(OC(C)C)cc1C1CCNCC1,MIC,[1],1 µg/mL
same,IC50 at 48 h,[2],3800 nM
Cc1cc(Nc2nc(-c3cnc4ccccc4c3)ncc2Cl)c(OC(C)C)cc1C1CCNCC1,MIC,[1],1 µg/mL
same,IC50 at 48 h,[2],1000 nM
Clc1cnc(-c2ccccc2)nc1Nc1ccc(N2CCNCC2)cc1OC1CCCCC1,MIC,[1],2 µg/mL
same,IC50 at 48 h,[2],3100 nM
NNC(=O)c1ccncc1 [ISONIAZID],MIC,[3],< 1 µg/mL
same,MIC,[4],> 50 µg/mL
same,MIC,[5],> 10 µg/mL
same,MIC,[6],> 10 µg/mL
same,MIC,[7],> 50 µg/mL
COc1cc(N2CCNCC2)ccc1Nc1nc(-c2ccccc2)ncc1Cl,MIC,[1],4 µg/mL
same,IC50 at 48 h,[2],2700 nM
Cc1cc(Nc2nc(-c3ccc4c(c3)OCCO4)ncc2Cl)c(OC(C)C)cc1C1CCNCC1,MIC,[1],1 µg/mL
same,IC50 at 48 h,[2],1000 nM
CC(C)Oc1cc(N2CCNCC2)ccc1Nc1nc(-c2ccccc2)ncc1Cl,MIC,[1],1 µg/mL
same,IC50 at 48 h,[2],2900 nM
Cc1cc(Nc2nc(Nc3cccc(F)c3)ncc2Cl)c(OC(C)C)cc1C1CCNCC1,MIC,[1],0.5 µg/mL
same,IC50 at 48 h,[2],1900 nM
CCC(C)Oc1cc(N2CCNCC2)ccc1Nc1nc(-c2ccccc2)ncc1Cl (stereo not given),MIC,[1],1 µg/mL
same,IC50 at 48 h,[2],2300 nM
Cc1cc(Nc2cc(-c3ccccc3)nc3ncnn23)c(OC(C)C)cc1C1CCNCC1,MIC,[1],4 µg/mL
same,IC50 at 48 h,[2],4400 nM
